Assay results reported in US8685726B2, “Small molecules supporting pluripotent cell growth and methods thereof” (Viacyte, Inc., priority 2009, dated 2014).
Where a name gives a salt, the structure may show the parent alone.

Each compound was assayed on hES cells (assay: Alkaline phosphatase staining screen of LOPAC1280 library (primary screen and secondary dose titration)). Settings: Homo sapiens; secondary screen, dilution series, 48 hours with compound, AP staining, StemPro hESC SFM, 96-well; read-out: [Concentration] minimal effective concentration negatively impacting hES cell cultures.
Type: cell-based, human
Experimental: FIG. 1. Representation of antagonists/modulators of neurotransmitter/hormone receptors identified by compound screening in hES cells. […] Receptor antagonists identified in the primary screen are shown (left column). The screen was performed using compounds at 10 μM. The secondary dose titration assay is shown (50-0.1 μM columns), and receptor class targeted by each compound and action is indicated.
Applying this approach in 96- and 384-well plates, quantitative and statistically significant cell-counting data was generated confirming the effect of AG825, an inhibitor of ERBB2 signaling, on self-renewal. About 3×10^4 hES cells per well were plated on MATRIGEL™ in StemPro® hESC SFM in 96-well plates and cultured for about 24 hours. The media was then changed, with new media containing 10 μM of a compound from the LOPAC1280 library (partial list in Table 1), and the cultures incubated for an additional 48 hours. The cultures were then fixed and stained for endogenous alkaline phosphatase, a marker of undifferentiated hES cells, activity.
The LOPAC1280 collection (Sigma Cat# LO1280), a library of small organic molecules with well-characterized pharmacological activities, was screened using the above described alkaline phosphatase detection assay in 96-well plates (16 plates total). Each 96-well assay was performed with 80 compounds (1 compound per well) and 16 wells as DMSO carrier negative controls. Greater than about 50 compounds were identified in the primary screen as impacting hES cell growth & expansion, which was then further determined to be a group of 38 molecules (Table 1) after secondary screening, and when known generally cytotoxic molecules were excluded (for example, 5-Azacytidine). Pathways that are likely to be impacted by these molecules, and therefore possibly important in hES cells, included those involving signalling by NFκB, eNOS, RAR(a), calcium channels, tachykinin signaling, guanylyl cyclase, Src and Jak2.
Secondary screening was performed using the same assay, but with a dilution series of 0.1-50 μM of a compound as compared to the 10 μM initially used. The minimal effective concentration for each compound is indicated (Table 1). […] While a role for GABA signaling in hES cell self-renewal has been highlighted previously (Ludwig et al., 2006), it has not been examined under other defined media conditions. Potential roles for other neurotransmitters in undifferentiated pluripotent stem cells have not been characterized.

Compound | minimal effective concentration [µM]
O=C(/C=C/c1ccc(O)c(O)c1)OCCc1ccccc1 [Caffeic acid phenethyl ester] | < 0.1
Cc1nc(-c2ccc(-c3ccc(C(=O)N4CCc5cc6c(cc54)C4(CCN(C)CC4)CO6)cc3)c(C)c2)no1 [SB 224289 hydrochloride] | 25
CC(C)(C)c1ccc(C(O)CCCN2CCC(C(O)(c3ccccc3)c3ccccc3)CC2)cc1 (stereo not shown) [Terfenadine] | 25
CCN(CC)CCCC(C)Nc1c2ccc(Cl)cc2nc2ccc(OC)cc12 (stereo not shown) [Quinacrine dihydrochloride] | 10
CC1(C)CCC2=C(O1)c1ccccc1C(=O)C2=O [beta-Lapachone] | 5
COc1cc([C@@H]2c3cc4c(cc3[C@H](O)[C@H]3COC(=O)[C@H]23)OCO4)cc(OC)c1OC [Podophyllotoxin] | < 0.1
c1ccc2c(c1)[I+]c1ccccc1-2 [Diphenyleneiodonium chloride] | 0.1
COCC(=O)O[C@]1(CCN(C)CCCc2nc3ccccc3[nH]2)CCc2cc(F)ccc2[C@@H]1C(C)C [Mibefradil dihydrochloride] | 25
N=C(N)c1ccc(OCCCCCOc2ccc(C(=N)N)cc2)cc1 [Pentamidine isethionate] | 1
COc1ccc(CCCOC(Cn2ccnc2)c2ccc(OC)cc2)cc1 (stereo not shown) [SKF 96365] | 25
C=CC1=C(C)c2cc3[nH]c(cc4nc(cc5[nH]c(cc1n2)c(C)c5CCC(=O)O)C(CCC(=O)O)=C4C)c(C)c3C=C [Protoporphyrin IX disodium] | 10
CC(Cc1ccc(O)c(O)c1)C(C)Cc1ccc(O)c(O)c1 (stereo not shown) [Nordihydroguaiaretic acid] | 5
Oc1cc(-c2ccccc2)nc2nc(Cl)ccc12 [7-Chloro-4-hydroxy-2-phenyl-1,8-naphthyridine] | 5
Clc1ccc(C(c2ccc(Cl)cc2)n2cc[n+](CC(OCc3ccc(Cl)cc3Cl)c3ccc(Cl)cc3Cl)c2)cc1 (stereo not shown) [Calmidazolium chloride] | 5
C[C@@H]1O[C@@H](O[C@H]2C[C@@H](O)[C@]3(CO)[C@H]4[C@H](O)C[C@]5(C)[C@@H](C6=CC(=O)OC6)CC[C@]5(O)[C@@H]4CC[C@]3(O)C2)[C@H](O)[C@H](O)[C@H]1O [Ouabain] | < 0.1
CC[N+](CC)(CC)CCOc1ccc(/C=C/c2ccccc2)cc1 [MG 624] | 0.1
O=c1[nH]c2ccccc2n1CCCN1CCC(n2c(=O)[nH]c3cc(Cl)ccc32)CC1 [Domperidone] | 25
Cc1cc(N)c2ccccc2[n+]1CCCCCCCCCC[n+]1c(C)cc(N)c2ccccc21 [Dequalinium chloride hydrate] | 5
CN(C)S(=O)(=O)c1ccc2c(c1)/C(=C/c1cc3c([nH]1)CCCC3)C(=O)N2 [SU 6656] | 25
CCCCCCCC/C=C\CCCCCCCC(=O)NCCc1ccc(O)c(O)c1 [N-Oleoyldopamine] | 5
C/C=C(/C)C(=O)O[C@H]1C(C)=C2[C@H]([C@@H]1OC(=O)CCCCCCC)[C@@](C)(OC(C)=O)C[C@H](OC(=O)CCC)[C@@]1(O)[C@H]2OC(=O)[C@@]1(C)O [Thapsigargin] | < 0.1
COC(=O)C1=C(C)NC(C)=C(C(=O)OC(C)(C)CN(C)CCC(c2ccccc2)c2ccccc2)C1c1cccc([N+](=O)[O-])c1 (stereo not shown) [Lercanidipine hydrochloride hemihydrate] | 10
Oc1cc2c(cc1O)CN(C(=S)NCCc1ccc(Cl)cc1)CCC2 [Capsazepine] | 5
CNc1ccc2oc(C[C@H]3O[C@@]4(CC[C@H]3C)O[C@H]([C@H](C)C(=O)c3ccc[nH]3)[C@H](C)C[C@H]4C)nc2c1C(=O)O [Calcimycin] | 1

Same assay, conditions: secondary screen, dilution series, 48 hours with compound, AP staining, StemPro hESC SFM, 96-well; read-out: [Concentration] minimal effective concentration negatively impacting hES cell cultures

Compound | minimal effective concentration [µM]
COc1cc2c(cc1O)CC[C@@H]1[C@@H]2CC[C@]2(C)[C@@H](O)CC[C@@H]12 [2-methoxyestradiol] | 10
CNC(=O)[C@H]1O[C@@H](n2cnc3c(NCc4cccc(I)c4)ncnc32)[C@H](O)[C@@H]1O [IB-MECA] | 50
Ivermectin | 5
CC[n+]1c(/C=C/C=C2/N(C)c3ccccc3C2(C)C)sc2ccccc21.[I-] [AC-93253 iodide] | 5
CC(C)[C@H]1c2ccc(F)cc2CC[C@@]1(CCN(C)CCCc1nc2ccccc2[nH]1)OC(=O)C1CC1 [NNC 55-0396] | 25
Vinblastine sulfate salt | <0.1
N.S=C(S)N1CCCC1 [Ammonium pyrrolidinedithiocarbamate] | 10
N#C/C(=C\c1ccc(O)c(O)c1)C(=O)NCc1ccccc1 [Tyrphostin AG 490] | 25
Nc1ccc(CCN2CCN(c3cccc(C(F)(F)F)c3)CC2)cc1 [PAPP] | 25
C[C@@H]1O[C@@H](O[C@H]2C[C@@H](O)[C@]3(CO)[C@H]4[C@H](O)C[C@]5(C)[C@@H]([C@@H]6COC(=O)C6)CC[C@]5(O)[C@@H]4CC[C@]3(O)C2)[C@H](O)[C@H](O)[C@H]1O [Dihydroouabain] | 1
CC1=C(/C=C/C(C)=C/C=C/C(C)=C/C(=O)Nc2ccc(O)cc2)C(C)(C)CCC1 [Retinoic acid p-hydroxyanilide] | 1
C[C@H]1CCC/C=C/[C@@H]2C[C@H](O)C[C@H]2[C@H](O)/C=C/C(=O)O1 [Brefeldin A] | <0.1
Ic1ccccc1CNC1C2CCN(CC2)C1C(c1ccccc1)c1ccccc1.O=C(O)C(=O)O [L-703,606 oxalate] | 25

These compounds were tested on hES cells (assay: Low-density real-time cell index monitoring (RT-CES impedance reader)). Settings: 50 μM (NE, ACh, Adenosine, GABA) or 10 μM (Y27632), 1000 cells/well, 5 days.
Type: cell-based, human
Experimental: FIG. 4. Titration of NE and ACh using the RT-CES impedance reader. 1000 hES cells/well were plated in StemPro® hESC SFM containing the indicated concentrations of small molecules (in μM). In such an assay, the timing of when the cell index rises is associated with the proportion of cells that survive and expand at low density.
FIG. 5. Combined effects of small molecules compound combinations in low cell density assays. (A) 1000 hES cells/well were plated in StemPro® hESC SFM containing small molecules at 50 μM (NE, ACh, Adenosine, GABA) or 10 μM (Y27632). The assay was carried out over 5 days using the RT-CES system.
FIG. 6. […] 1000 hES cells/well were plated in StemPro® hESC SFM containing Heregulin, IGF1 and Activin (HIA) and the indicated small molecules. […] Compounds were tested at 10 μM. The DMSO trace is an average of 8 wells. […] Compounds were tested at the indicated concentrations.
FIG. 7. […] 1000 hES cells/well were plated in StemPro® hESC SFM containing the indicated combinations of growth factors and small molecules. Heregulin (H), LR3-IGF1 (I), Activin (A).
FIG. 9. Low-density RT-CES assays of combinations of growth factors and neurotransmitters. 1000 hES cells/well were plated in StemPro® hESC SFM containing the indicated combinations of growth factors and small molecules. Heregulin (H), LR3-IGF1 (I), Activin (A). Small molecules were tested at 50 μM.
Furthermore, pluripotent cells can also be grown in 96-well culture devices that provide real-time measurements of impedance, which can be used to measure cell proliferation and viability using the RT-CES™ methods from ACEA Biosciences, Inc. (www (dot) aceabio (dot) com). Such an approach would enable a label-free identification and quantification of subtle or immediate effects on differentiable cells, as well as measurements of proliferation, apoptosis and changes to morphology, in real time.
To examine more closely the potency of individual neurotransmitters and determine if synergies exist between different factors, low-density assays were performed in real time using an impedance reader. The ACEA biosciences RT-CES system uses 96-well trays that contain embedded microsensors to monitor changes in electrical impedance, which is translated into a measure of cell index. Any overt alteration within a cell culture can be detected, including but not limited to cell proliferation, migration, cell spreading, apoptosis, differentiation and the like. […] Once an undifferentiated culture becomes confluent the cell index remains high, but tends to go down and up (scallop) between daily feedings. Conversely, differentiation is typically indicated by the appearance of distinctive patterns, such as peaks and troughs in the cell index, likely indicative of an epithelial-to-mesenchymal transition, flattening, cell migration, apoptosis or similar differentiation and growth related changes.
Human ES cells were plated at low density, 1000 cells/well, in RT-CES trays and cultured for 10 days (FIG. 4). Cells were plated directly in StemPro® hESC SFM containing carrier control (DMSO), NE, or ACh.

Compound | survival and expansion at low density, single factors and two-factor combinations
NCCCC(=O)O [GABA] | less effective

Same assay, conditions: 50 μM each factor, 1000 cells/well, StemPro hESC SFM

Compound | time after plating at which cell index rises above background / expansion detectable [days]
NCCCC(=O)O [GABA] | ~4.5

Same assay, conditions: 1000 cells/well, StemPro hESC SFM

Compound | low cell density survival with a single growth factor
heregulin | did not support low cell density survival

Same assay, conditions: 1000 cells/well, StemPro hESC SFM HIA, low-density impedance assay

Compound | survival/proliferation compared to DMSO controls
NCCc1ccc(O)c(O)c1 [dopamine] | enhanced survival/proliferation
COc1cc(CC(=O)O)ccc1O [HVA, homovanillic acid] | enhanced survival/proliferation
NCCCC(=O)O [GABA] | lack of robust activity
